# Several values for one entry are separate records, joined by “and”; a condition that tells them apart may be missing. Equal values may be shown once. Where a name gives a salt, the structure may show the parent alone.
# Columns and labels:
# [1] = Release rates of active agents from Tecophilic, Tecoflex and Carbothane polyurethane implants (Example 6); format: physicochemical
# [2] = cited from earlier work
# [3] = In vitro elution of histrelin from Tecophilic HP-60D-20 polyurethane implant (Example 1); format: physicochemical; conditions: HP-60D-20 implant
# Description: HP-60D-20 is extruded to tubes with thickness of 0.30 mm with inside diameter of 1.75 mm. The tubes are then cut into 25 mm in length. One side of the tube is sealed with heat using a heat sealer. The sealing time is less than one minute. Four pellets of histrelin acetate are loaded into the tube. […] Each pellet is comprised of a mixture of 98% histrelin and 2% stearic acid. The second end open of the tube is sealed with heat in the same way as for the first end. The loaded implant is then conditioned and primed. The conditioning takes place at room temperature in a 0.9% saline solution for one day. Upon completion of the conditioning, the implant undergoes priming. The priming takes place at room temperatures in a 1.8% saline solution for one day. Each implant is tested in vitro in a medium selected to mimic the pH found in the human body. The temperature of the selected medium was kept at approximately 37° C. during the testing. The release rates are shown on FIG. 4 and Table 2.
# [4] = In vitro elution of naltrexone from Tecophilic HP-60D-35 polyurethane implants (Example 2); format: physicochemical; conditions: HP-60D-35 implants -1, -2, -3, in vitro
# Experimental: HP-60D-35 is extruded to tubes with thickness of 0.30 mm with inside diameter of 1.75 mm. The tubes are then cut into 32 mm in length. One side of the tube is sealed with heat using a heat sealer. The sealing time is less than one minute. Six pellets of naltrexone are loaded into the tubes and both open sides of the tubes are sealed with heat. Each pellet weighs approximately 15.0 mg for a total of 91 mg. The second end open of the tube is sealed with heat in the same way as for the first end. The loaded implant is then conditioned and primed. The conditioning takes place at room temperature in a 0.9% saline solution for one week. Upon completion of the conditioning, the implant undergoes priming. The priming takes place at room temperatures in a 1.8% saline solution for one week. Each implant is tested in vitro in a medium selected to mimic the pH found in the human body. The temperature of the selected medium was kept at approximately 37° C. during the testing. The release rates are shown on FIG. 5 and Table 3.
# [5] = cited from earlier work; remark: listed apart in the source
# [6] = subcutaneous implants, end of the third month
# [7] = Carbothane PC-3595A, F.M.: 4,500
structure (smiles),measurement,setting,value
Clc1cccc(Cl)c1N=C1NCCN1 [Clonidine Base],non-normalized release rate,"[1]; Carbothane PC-3575A, F.M.: 620",400 µg/day
same,release rate normalized to surface area of the implant,"[1]; Carbothane PC-3575A, F.M.: 620",202 μg/day/cm^2
same,non-normalized release rate,[1]; [7],270 µg/day
same,release rate normalized to surface area of the implant,[1]; [7],136 μg/day/cm^2
same,non-normalized release rate,"[1]; Tecoflex EG 100A, F.M.: 10,000",175 µg/day
same,release rate normalized to surface area of the implant,"[1]; Tecoflex EG 100A, F.M.: 10,000",88 μg/day/cm^2
same,non-normalized release rate,"[1]; Tecoflex EG-65D, F.M.: 37,000",50 µg/day
same,release rate normalized to surface area of the implant,"[1]; Tecoflex EG-65D, F.M.: 37,000",25 μg/day/cm^2
same,non-normalized release rate,"[1]; Tecoflex EG-85A, F.M.: 2,300",2000 µg/day
same,release rate normalized to surface area of the implant,"[1]; Tecoflex EG-85A, F.M.: 2,300",1053 μg/day/cm^2
same,non-normalized release rate,"[1]; Tecophilic HP-60D-20, 15% EWC",2000 µg/day
same,release rate normalized to surface area of the implant,"[1]; Tecophilic HP-60D-20, 15% EWC",1011 μg/day/cm^2
same,Log P,[2],Log P = 2.56
C[C@@H]1C[C@H]2[C@@H]3CCC4=CC(=O)C=C[C@]4(C)[C@@]3(F)[C@@H](O)C[C@]2(C)[C@@]1(O)C(=O)CO [Dexamethasone],Log P,[2],Log P = 1.93
CCNC(=O)[C@@H]1CCCN1C(=O)[C@H](CCCNC(=N)N)NC(=O)[C@H](CC(C)C)NC(=O)[C@@H](Cc1cn(Cc2ccccc2)cn1)NC(=O)[C@H](Cc1ccc(O)cc1)NC(=O)[C@H](CO)NC(=O)[C@H](Cc1c[nH]c2ccccc12)NC(=O)[C@H](Cc1cnc[nH]1)NC(=O)[C@@H]1CCC(=O)N1 [Histrelin Acetate],Histrelin Elution Rates,[3]; week 1 of elution,451.733 µg/day
same,Histrelin Elution Rates,[3]; week 2 of elution,582.666 µg/day
same,Histrelin Elution Rates,[3]; week 3 of elution,395.9 µg/day
same,Histrelin Elution Rates,[3]; week 4 of elution,310.29 µg/day
same,Histrelin Elution Rates,[3]; week 5 of elution,264.92 µg/day
same,Histrelin Elution Rates,[3]; week 6 of elution,247.17 µg/day
same,Histrelin Elution Rates,[3]; week 7 of elution,215.93 µg/day
same,Histrelin Elution Rates,[3]; week 8 of elution,201.78 µg/day
same,Histrelin Elution Rates,[3]; week 9 of elution,183.22 µg/day
same,Histrelin Elution Rates,[3]; week 10 of elution,174.99 µg/day
same,Histrelin Elution Rates,[3]; week 11 of elution,167.72 µg/day
same,Histrelin Elution Rates,[3]; week 12 of elution,158.37 µg/day
same,Histrelin Elution Rates,[3]; week 13 of elution,153.95 µg/day
same,Histrelin Elution Rates,[3]; week 14 of elution,146.46 µg/day
same,Histrelin Elution Rates,[3]; week 15 of elution,139.83 µg/day
same,Histrelin Elution Rates,[3]; week 16 of elution,129.6 µg/day
same,Histrelin Elution Rates,[3]; week 17 of elution,124.46 µg/day
same,Histrelin Elution Rates,[3]; week 18 of elution,118.12 µg/day
same,Histrelin Elution Rates,[3]; week 19 of elution,120.35 µg/day
same,non-normalized release rate,[1]; [7],0.4 µg/day
same,release rate normalized to surface area of the implant,[1]; [7],0.2 μg/day/cm^2
same,non-normalized release rate,"[1]; Tecoflex EG 100A, F.M.: 10,000",0.5 µg/day
same,release rate normalized to surface area of the implant,"[1]; Tecoflex EG 100A, F.M.: 10,000",0.3 μg/day/cm^2
same,non-normalized release rate,"[1]; Tecophilic HP-60D-20, 15% EWC",150 µg/day
same,release rate normalized to surface area of the implant,"[1]; Tecophilic HP-60D-20, 15% EWC",93 μg/day/cm^2
same,non-normalized release rate,"[1]; Tecophilic HP-60D-35, 24% EWC",400 µg/day
same,release rate normalized to surface area of the implant,"[1]; Tecophilic HP-60D-35, 24% EWC",248 μg/day/cm^2
same,non-normalized release rate,"[1]; Tecophilic HP-60D-60, 31% EWC",500 µg/day
same,release rate normalized to surface area of the implant,"[1]; Tecophilic HP-60D-60, 31% EWC",309 μg/day/cm^2
Cc1ccccc1N1C(=O)c2cc(S(N)(=O)=O)c(Cl)cc2NC1C (stereo not drawn) [Metolazone],non-normalized release rate,"[1]; Carbothane PC-3575A, F.M.: 620",20 µg/day
same,release rate normalized to surface area of the implant,"[1]; Carbothane PC-3575A, F.M.: 620",8.4 μg/day/cm^2
same,non-normalized release rate,[1]; [7],6.1 µg/day
same,release rate normalized to surface area of the implant,[1]; [7],2.6 μg/day/cm^2
same,non-normalized release rate,"[1]; Tecoflex EG 100A, F.M.: 10,000",5.5 µg/day
same,release rate normalized to surface area of the implant,"[1]; Tecoflex EG 100A, F.M.: 10,000",2.3 μg/day/cm^2
same,non-normalized release rate,"[1]; Tecoflex EG-85A, F.M.: 2,300",77 µg/day
same,release rate normalized to surface area of the implant,"[1]; Tecoflex EG-85A, F.M.: 2,300",32 μg/day/cm^2
same,non-normalized release rate,"[1]; Tecophilic HP-60D-20, 15% EWC",124 µg/day
same,release rate normalized to surface area of the implant,"[1]; Tecophilic HP-60D-20, 15% EWC",50 μg/day/cm^2
same,Log P,[2],Log P = 2.50
O=C1CC[C@@]2(O)[C@H]3Cc4ccc(O)c5c4[C@@]2(CCN3CC2CC2)[C@H]1O5 [Naltrexone Base],Naltrexone Elution Rates,[4]; week 1 of release,1529.26 µg/day and 767.38 µg/day and 1400.95 µg/day
same,Naltrexone Elution Rates,[4]; week 2 of release,1511.77 µg/day and 1280.03 µg/day and 1498.86 µg/day
same,Naltrexone Elution Rates,[4]; week 3 of release,1456.01 µg/day and 1635.97 µg/day and 1449.49 µg/day
same,Naltrexone Elution Rates,[4]; week 4 of release,1378.27 µg/day and 1607.13 µg/day and 1500.42 µg/day
same,Naltrexone Elution Rates,[4]; week 5 of release,1393.05 µg/day and 1614.52 µg/day and 1558.37 µg/day
same,Naltrexone Elution Rates,[4]; week 6 of release,1321.71 µg/day and 1550.39 µg/day and 1436.03 µg/day
same,Naltrexone Elution Rates,[4]; week 7 of release,1273.07 µg/day and 1424.24 µg/day and 1300.73 µg/day
same,Naltrexone Elution Rates,[4]; week 8 of release,1172.82 µg/day and 1246.48 µg/day and 1221.57 µg/day
same,non-normalized release rate,[1]; [7],25 µg/day
same,release rate normalized to surface area of the implant,[1]; [7],5.5 μg/day/cm^2
same,non-normalized release rate,"[1]; Tecoflex EG 100A, F.M.: 10,000",55 µg/day
same,release rate normalized to surface area of the implant,"[1]; Tecoflex EG 100A, F.M.: 10,000",23 μg/day/cm^2
same,non-normalized release rate,"[1]; Tecophilic HP-60D-05, 5.5% EWC",50 µg/day
same,release rate normalized to surface area of the implant,"[1]; Tecophilic HP-60D-05, 5.5% EWC",12.7 μg/day/cm^2
same,non-normalized release rate,"[1]; Tecophilic HP-60D-10, 8.7% EWC",500 µg/day
same,release rate normalized to surface area of the implant,"[1]; Tecophilic HP-60D-10, 8.7% EWC",127 μg/day/cm^2
same,non-normalized release rate,"[1]; Tecophilic HP-60D-20, 15% EWC",1000 µg/day
same,release rate normalized to surface area of the implant,"[1]; Tecophilic HP-60D-20, 15% EWC",263 μg/day/cm^2
same,non-normalized release rate,"[1]; Tecophilic HP-60D-35, 24% EWC",1500 µg/day
same,release rate normalized to surface area of the implant,"[1]; Tecophilic HP-60D-35, 24% EWC",704 μg/day/cm^2
same,non-normalized release rate,"[1]; Tecophilic HP-60D-60, 31% EWC",2200 µg/day
same,release rate normalized to surface area of the implant,"[1]; Tecophilic HP-60D-60, 31% EWC",883 μg/day/cm^2
same,Log P,[2],Log P = 2.07
C[C@@H](O)[C@@H]1NC(=O)[C@H](CCCCN)NC(=O)[C@@H](Cc2c[nH]c3ccccc23)NC(=O)[C@H](Cc2ccccc2)NC(=O)[C@@H](NC(=O)[C@H](N)Cc2ccccc2)CSSC[C@@H](C(=O)N[C@H](CO)[C@@H](C)O)NC1=O [Octreotide Acetate],Relative Water Solubility,[5],"Very soluble,"
same,non-normalized release rate,"[1]; Tecoflex EG-85A, F.M.: 2,300",30 µg/day
same,release rate normalized to surface area of the implant,"[1]; Tecoflex EG-85A, F.M.: 2,300",16 μg/day/cm^2
same,non-normalized release rate,"[1]; Tecophilic HP-60D-05, 5.5% EWC",0 µg/day
same,release rate normalized to surface area of the implant,"[1]; Tecophilic HP-60D-05, 5.5% EWC",0 μg/day/cm^2
same,non-normalized release rate,"[1]; Tecophilic HP-60D-10, 8.7% EWC",25 µg/day
same,release rate normalized to surface area of the implant,"[1]; Tecophilic HP-60D-10, 8.7% EWC",11 μg/day/cm^2
same,non-normalized release rate,"[1]; Tecophilic HP-60D-20, 15% EWC",1500 µg/day
same,release rate normalized to surface area of the implant,"[1]; Tecophilic HP-60D-20, 15% EWC",758 μg/day/cm^2
same,non-normalized release rate,"[1]; Tecophilic HP-60D-35, 24% EWC",4000 µg/day
same,release rate normalized to surface area of the implant,"[1]; Tecophilic HP-60D-35, 24% EWC",2022 μg/day/cm^2
Cc1nc2n(c(=O)c1CCN1CCC(c3noc4cc(F)ccc34)CC1)CCCC2 [Risperidone],non-normalized release rate,"[1]; Carbothane PC-3575A, F.M.: 620",40 µg/day
same,non-normalized release rate,[1]; [7],11 µg/day
same,non-normalized release rate,"[1]; Tecoflex EG 100A, F.M.: 10,000",8 µg/day
same,non-normalized release rate,"[1]; Tecoflex EG-65D, F.M.: 37,000",2 µg/day
same,non-normalized release rate,"[1]; Tecoflex EG-85A, F.M.: 2,300",150 µg/day
same,non-normalized release rate,"[1]; Tecophilic HP-60D-20, 15% EWC",150 µg/day
same,Log P,[2],Log P = 3.28
same,risperidone level in the dog plasma,[6],still present at a high level
C#CCN(C)[C@H](C)Cc1ccccc1 [Selegiline HCL],non-normalized release rate,"[1]; Carbothane PC-3575A, F.M.: 620",70 µg/day
same,release rate normalized to surface area of the implant,"[1]; Carbothane PC-3575A, F.M.: 620",36 μg/day/cm^2
same,non-normalized release rate,[1]; [7],30 µg/day
same,release rate normalized to surface area of the implant,[1]; [7],15 μg/day/cm^2
same,non-normalized release rate,"[1]; Tecoflex EG 100A, F.M.: 10,000",14 µg/day
same,release rate normalized to surface area of the implant,"[1]; Tecoflex EG 100A, F.M.: 10,000",7.2 μg/day/cm^2
same,non-normalized release rate,"[1]; Tecoflex EG-65D, F.M.: 37,000",8 µg/day
same,release rate normalized to surface area of the implant,"[1]; Tecoflex EG-65D, F.M.: 37,000",4.1 μg/day/cm^2
same,non-normalized release rate,"[1]; Tecoflex EG-85A, F.M.: 2,300",3000 µg/day
same,release rate normalized to surface area of the implant,"[1]; Tecoflex EG-85A, F.M.: 2,300",1518 μg/day/cm^2
same,non-normalized release rate,"[1]; Tecophilic HP-60D-20, 15% EWC",600 µg/day
same,release rate normalized to surface area of the implant,"[1]; Tecophilic HP-60D-20, 15% EWC",294 μg/day/cm^2

# From patent publication US8460274B2, “Long term drug delivery devices with polyurethane-based polymers and their manufacture” (Endo Pharmaceuticals Solutions Inc., priority 2008, dated 2013)
